Experimental data published in paper PMC3626118 (Combinatorial chemistry & high throughput screening, 2009).

Tests used:
[1] = target: T1, RNA triphosphatase TbCet1 (Trypanosoma brucei brucei, UniProt Q582T2); assay: Transcreener ADP fluorescence polarization assay, dose-response; type: biochemical
T1 sequence (Q582T2 1-253): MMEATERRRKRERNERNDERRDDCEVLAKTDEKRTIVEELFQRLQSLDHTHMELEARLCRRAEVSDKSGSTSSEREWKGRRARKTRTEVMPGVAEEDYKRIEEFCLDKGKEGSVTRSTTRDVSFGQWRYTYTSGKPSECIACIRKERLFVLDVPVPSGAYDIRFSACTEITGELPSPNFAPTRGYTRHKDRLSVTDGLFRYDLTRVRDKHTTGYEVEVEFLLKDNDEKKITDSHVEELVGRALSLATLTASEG

[2] = physchem; conditions: pH 8, aqueous buffer, kinetic from dmso stock
[3] = Solubility by laser nephelometry in assay conditions; conditions: for Sol. (solubility threshold): laser nephelometry, assay conditions

| IC50 [1] | SMILES | also measured |
| --- | --- | --- |
| 8800 nM | O=c1c(O)cc([C@H]2Oc3cc(O)cc(O)c3C[C@H]2O)cc2c([C@H]3Oc4cc(O)cc(O)c4C[C@H]3O)cc(O)c(O)c12 [SKI 209343, Theaflavin] |  |
| 65 nM | O=c1c(-c2cc(O)c(O)c(O)c2)coc2cc(O)c(O)c(O)c12 [SKI 209392, Irigenol] |  |
| 10 nM | O=C(O[C@@H]1Cc2c(O)cc(O)cc2O[C@@H]1c1cc(O)c(O)c(O)c1-c1c([C@H]2Oc3cc(O)cc(O)c3C[C@H]2O)cc(O)c(O)c1O)c1cc(O)c(O)c(O)c1 [SKI 209412, 2′,2′-Bisepigallocatechin monogallate] |  |
|  | O=C(Oc1cc(O)cc2c1C[C@@H](OC(=O)c1cc(O)c(O)c(O)c1)[C@@H](c1cc(O)c(O)c(O)c1)O2)c1cc(O)c(O)c(O)c1 [SKI 209415, Epigallocatechin-3,5-digallate] | Sol. (solubility threshold) [3]: > 100 µM |
|  | O=C(O[C@@H]1Cc2c(O)cc(O)cc2O[C@@H]1c1ccc(O)c(O)c1)c1cc(O)c(O)c(O)c1 [SKI 209457, Epicatechin monogallate] | Sol. (solubility threshold) [3]: > 100 µM |
|  | O=C(O[C@@H]1Cc2c(O)cc(O)cc2O[C@@H]1c1cc(O)c(O)c(O)c1)c1cc(O)c(O)c(O)c1 [SKI 209458, Epigallocatechin-3-monogallate] | Sol. (solubility threshold) [3]: > 100 µM |
| 210 nM | O=c1c(O)cccc2cc(O)c(O)c(O)c12 [SKI 209468, Purpurogallin] |  |
| 440 nM | O=c1c(O)cccc2c([C@H]3Oc4cc(O)cc(O)c4C[C@H]3O)cc(O)c(O)c12 [SKI 209509, Theaflavanin] |  |
| 3900 nM | COc1cc(O)c2c(=O)c(O)c(-c3ccc(O)c(O)c3)oc2c1 [SKI 209674, Rhamnetin] |  |
| 720 nM | NC[C@H](O)c1ccc(O)c(O)c1 [SKI 210170, Norepinephrine, reference compound] | solubility [2]: > 100 µM |
| 35 nM | O=c1oc2c(O)c(O)cc3c(=O)oc4c(O)c(O)cc1c4c23 [SKI 210886, Ellagic acid] |  |
| 2100 nM | O=c1c(O)c(-c2ccc(O)c(O)c2)oc2cc(O)ccc12 [SKI 210887, Fisetin] |  |
| 200 nM | O=C1C=C2CC3(O)COc4c(ccc(O)c4O)C3=C2C=C1O (stereo not shown) [SKI 210893, Hematein] |  |
|  | Nc1cccc2c1C(=O)c1cccc(N)c1C2=O [SKI 217754, Anthraquinone, 1,5-diamino] | Sol. (solubility threshold) [3]: > 100 µM |

| SMILES | IC50 [1] | also measured |
| --- | --- | --- |
| Oc1cc2c(cc1O)C1c3ccc(O)c(O)c3OCC1(O)C2 (stereo not shown) [SKI 209325, Haematoxylin] | 1700 nM | solubility [2]: > 100 µM |
| Oc1cc(O)c2c(c1)O[C@H](c1cc(O)c(O)c(O)c1)[C@H](O)C2 [SKI 209444, Epigallocatechin] | 4400 nM |  |
| O=c1c(O)c(-c2cc(O)c(O)c(O)c2)oc2cc(O)cc(O)c12 [SKI 211290, Myricetin] | 7200 nM | solubility ([3]; pH 8, aqueous buffer, kinetic from dmso stock): > 100 µM |
| N[C@@H](Cc1ccc(O)c(O)c1)C(=O)O [SKI 211511, Levodopa, reference compound] | 30 nM | solubility [2]: > 100 µM |
